According to patent US8871741B2, “Inhibition of TNF-α induced activation of NFKB by pentosan polysulfate” (Icahn School of Medicine at Mount Sinai, priority 2010, dated 2014):

Key:
WHHL rabbits = conditions: rabbit, in vivo, po
Method: 3-month-old female WHHL rabbits, obtained from the Institute for Experimental Animals, Kobe University School of Medicine (Shiomi M, et al., Arterioscler Thromb 1994; 14: 931-937), were fed a standard diet supplemented with 0.5% cholesterol for 45 days. […] Twenty rabbits with established lesions were randomized into two groups, one (PPS group) receiving PPS (30 mg/kg BW daily) added to the drinking water, and the other (Control group) receiving tap water for the next 30 days. […] After 30 days, the rabbits were anesthetized with ketamine hydrochloride and xylazine (60 mg and 6 mg/kg BW, respectively), and exsanguinated. Five from each group were perfusion-fixed with 4% phosphate-buffered formaldehyde solution through the femoral vein.

MMP-2 and MMP-9 = assay: Zymography of supernatants of human peripheral blood-derived macrophages; format: cell-based; conditions: TNF-α stimulated human peripheral blood-derived macrophages, 100 μg/ml PPS
Method: Human peripheral blood monocytes were isolated as previously described (Valone F H, Epstein L B. J Immunol. 1988; 141: 3945-3950), and maintained in medium 199 supplemented with 2% human serum for in vitro differentiation into macrophages (Camussi G, et al., J Exp Med. 1987; 166: 1390-1404).
(§1) MMP activity in aortic extracts and conditioned media from monocytes was assessed, as previously described (Jacot T A, et al., Lab Invest. 1996; 75:791-79). Briefly, aortic segments were homogenized and extracted in RIPA buffer (25 mM Tris, pH 7.4, 150 mM KCl, 5 mM EDTA, 1% Nonidet P-40, 0.5% sodium deoxycholate, and 0.1% SDS). Insoluble material was precipitated by centrifugation, and soluble extracts were collected and stored at −20° C. for further analysis. For in vitro experiments, cell supernatants were centrifuged to remove cellular debris, and diluted appropriately to normalize for cell number. Aortic extracts and conditioned media were then mixed with sample buffer (1% SDS, 0.08 M Tris pH 6.8, 4% glycerol, and 0.006% bromophenol blue), and loaded onto a 10% gelatin polyacrylamide gel, and processed as described (Jacot T A, et al., Lab Invest. 1996; 75:791-79). For reverse zymography, samples were loaded onto a 15% gelatin polyacrylamide gel containing 0.5% porcine gelatin and 6 μg recombinant gelatinase A, and processed as described (Elliot S J, et al., J Am Soc Nephrol. 1999; 10: 62-68).

MMP-2/MMP-9 = assay: Net MMP activity in aortic extracts, synthetic colorimetric substrate; format: in vivo, rabbit; conditions: aortic arch extracts, WHHL rabbits treated with PPS; P<0.05
Method: as §1
MMP-2/MMP-9 net activity in aortic extracts was evaluated by using a synthetic colorimetric substrate [Ac-Pro-Leu-Gly-(2-mercapto-4-methylpentanoyl)-Leu-Gly-Oet; Calbiochem, Cambridge, Mass.], according to the manufacturer's directions.

podocytes = assay: Albumin permeability of podocyte monolayers (FITC-labeled BSA flux); format: cell-based; conditions: podocyte monolayer
Method: 1×10^5 podocytes were seeded onto collagen-coated transwell filters ([…] pore-size, Corning, N.Y., N.Y.) placed in the top chamber of each well of a 24-well plate. After cells reached confluence, some wells of cells were treated with TNFα (20 ng/ml), PPS (400 μg/ml), or PPS plus TNFα in 2% FBS medium for 8 hours. Then the medium from both the top and bottom chamber was completely removed, cells were washed twice with PBS and the top chamber was refilled with 0.2 ml 2% FBS medium supplemented with 0.5 mg/ml FITC-labeled BSA (Sigma Aldrich, St Louis, […].), while the bottom chamber was refilled with 0.6 ml 2% FBS medium supplemented with 0.5 mg/ml unlabeled BSA. At different time points, 100 μl aliquots were collected from the bottom chamber and fluorescence was measured by a fluorescence spectrophotometer (485 nm excitation, 535 nm emission). The concentration of FITC-BSA passing through the monolayer was determined by reference to a set of standard dilutions of FITC-BSA. The value of albumin flux through untreated monolayer was arbitrarily defined as 100%.

[1] = test system: Watanabe heritable hypercholesterolemic rabbits (WHHL); assay: Progression of established atherosclerosis in WHHL rabbits, morphologic analysis of aorta; format: in vivo, rabbit
Method: The degree of aortic atherosclerosis was evaluated by measuring the percent lesion area on the surface of the whole intimal (surface area of lesion/surface area of the whole intima) in the region between the aortic arch and the emergence of the renal arteries. Moreover, serial cross-sectional tissue samples (≈3 mm in length) taken from the aortic arch to the […] were post-fixed in paraformaldehyde (4% wt/vol.) and processed for histological analysis. The specimens were then embedded in paraffin, and 4-μm-thick sections were stained with hematoxylin and eosin (H&E). The ratio of intima to media (I/M ratio) was measured by computer-aided morphometric analysis in three consecutive cross-sectional sections of the aortic arch and the abdominal aorta, near the origin of the renal arteries, as described (Shindo J, et al., Circulation 1999; 99: 2150-2156). To avoid errors due to the heterogeneity of atherosclerotic lesions, the cross sections containing the thickest atherosclerotic lesions were selected individually from the aortic arch and used for the analysis of the cross-sectional areas of atherosclerotic lesions (Shindo J, et al., Circulation 1999; 99: 2150-2156). Percentage of the area occupied by macrophages and collagen were measured by computer-aided morphometric analysis on aortic cross sections stained immunohistochemically with RAM-11 antibody (DAKO Corp.) or Sirius red, respectively.

ERK1/2 = assay: TNFα stimulated ERK1/2 phosphorylation in proximal tubular cells, Western-blot; format: cell-based, mouse
Method: The activation of NF-κB and mitogen activated protein kinases including p38, JNK (Jun N-terminal kinase), and ERK (extracellular signal regulated kinase) pathways play an essential role in proinflammatory actions of TNFα. Thus, it was examined whether PPS affected the phosphorylation of IκB, ERK, p38, and JNK by TNFα. Proximal tubular cells were allowed to grow to 70% confluency in […] petri-dish. Cell lysates were collected before or 15, 30, 60, and 120 minutes after TNFα treatment (10 ng/ml). Cells in some dishes were pre-incubated with PPS (400 μg/ml) for ½ hour before exposure to TNFα. The levels of phosphorylated IκB, ERK, p38, and JNK were determined by Western-blots. Briefly, equal amounts of protein samples (10-20 μg/lane) were loaded onto SDS-PAGE gels. After electrophoresis, proteins were transferred to nitrocellulose membranes and blotted with antibody against phosphorylated IκB, ERK, p38, or JNK (Cell signaling, Boston, Mass.). After the first analysis, the membranes were stripped to re-probe with antibody against total IκB, ERK, p38 or JNK, and ERK and finally with antibody against β-actin (Cell signaling, Boston, Mass.).

pentosan polysulfate [PPS]
bleeding (WHHL rabbits): not observed | effect on MMP production (MMP-2 and MMP-9): inhibitory effect | Net MMP-2/MMP-9 activity, reduction compared to water-treated animals (MMP-2/MMP-9): 27.74±4.32% | inhibition of the flux of FITC-labeled BSA (podocytes; PPS 400 μg/ml plus TNFα 20 ng/ml, FIG. 18 legend): 34% | reduction of the TNFα-induced increase in FITC-labeled albumin passage (podocytes; PPS 400 μg/ml, TNFα 20 ng/ml): ~60% | intima/media ratio (I/M) compared to WHHL rabbits fed a HC-diet for 45 days ([1]; HC-diet 45 days, then oral PPS for an additional 30 days): not significantly different | area containing macrophages, relative to the total plaque area ([1]; RAM-11 staining, aortic cross sections, 75 days HC-diet, PPS last 30 days, mean±SEM): 35.56±1.51% | percent surface area of the intima occupied by lesions, reduction compared to water-treated controls ([1]; WHHL rabbits, HC-diet 75 days, PPS 30 mg/kg BW daily in drinking water for the last 30 days): approximately one-third | intima/media ratio (I/M) compared to water-treated controls ([1]; aortic arch and abdominal aorta, 75 days HC-diet, oral PPS for the last 30 days): significantly lower | Sirius red staining (collagen) in plaques ([1]; aortic arch sections, 75 days HC-diet, PPS last 30 days, mean±SEM): 47.43±2.93% | TNFα-stimulated ERK1/2 phosphorylation (ERK1/2): suppressed
